Measurements: patent publication US20070286888A1, “Additive For Feeds And Feed Containing The Same” (Kabushiki Kaisha Yakult Honsha, priority 2004, published 2007)

Tests used:
[1] = test system: L. reuteri YIT0480 strain; assay: Antibiotic resistance test, L. reuteri; format: cell-based, Lactobacillus reuteri
Experimental: (§1) The 11 antibiotics shown in Table 3 were separately added at concentrations of 100, 10, 1, 0.1, and 0 μg/ml, to thereby prepare MRS agar mediums (manufactured by Difco). Subsequently, cell culture solutions of the five bacterial stains (A) and (B) obtained in Production Example 1 (10 μl each) were separately inoculated into the respective antibiotic-containing MRS mediums (the cell number of each bacterial strain: about 1·10^8 cells/ml), followed by smear culture at 37° C. for 48 hours under anaerobic conditions. The proliferated bacteria were evaluated with the naked eye, and the […] for each antibiotic (μg/ml) were calculated.

[2] = test system: L. equi YIT0483 strain; assay: Antibiotic resistance test, L. equi; format: cell-based, Lactobacillus equi
Experimental: as §1

[3] = test system: five Lactobacillus bacterial stains (A) and (B); assay: Antibiotic resistance test, all five strains; format: cell-based
Experimental: as §1

[4] = test system: L. johnsonii YIT0482 strain; assay: Antibiotic resistance test, L. johnsonii; format: cell-based, Lactobacillus johnsonii
Experimental: as §1

[5] = test system: horse gastric mucosal epithelial cell; assay: Cell adhesion test to horse gastric mucosal epithelial cell; format: cell-based; settings: for Adhesion of bacteria to horse gastric mucosal epithelial cell: cells adhered to one gastric mucosal epithelial cell, 37° C., Giemsa stain
Experimental: Meanwhile, gastric mucosal epithelial tissue pieces (1 cm^2) taken from a horse were added to 3 ml (the cell number of each bacterial strain: about 3·10^8 cells/ml) of cell culture solutions of the five bacterial stains (A) and (B) obtained in Production Example 1 above, followed by culture with shaking at 37° C. Then, the gastric mucosal epithelial tissue pieces were washed with a buffer (composition: 0.8% NaCl; 0.121% K2HPO4; 0.034% KH2PO4; pH 7.2) several times, and the gastricmucosal epithelial cells were scraped off from the gastric mucosal epithelial tissue pieces under a stereomicroscope, followed by Giemsa stain. The resultant cells were used to count the number of cells of each bacterial strain that adhered to one gastric mucosal epithelial cell under a microscope, and the adhesion was evaluated.

[6] = Proliferative activity test in skim milk media; format: cell-based; design: key to Proliferative activity 24 hours later SM / Proliferative activity 24 hours later YE / Proliferative activity 24 hours later P / Proliferative activity 24 hours later YP / Proliferative activity 48 hours later SM / Proliferative activity 48 hours later YE / Proliferative activity 48 hours later P / Proliferative activity 48 hours later YP: ∘: completely solidified culture solution due to proliferated cells; Δ: semifluid culture solution with slightly proliferated cells; x: liquid culture solution with unproliferated cells; settings: for Proliferative activity 24 hours later P / Proliferative activity 48 hours later P: 0.1% peptone +10% skim milk; for Proliferative activity 24 hours later P / Proliferative activity 48 hours later P / Proliferative activity 24 hours later YP / Proliferative activity 48 hours later YP / Proliferative activity 24 hours later YE / Proliferative activity 48 hours later YE / Proliferative activity 24 hours later SM / Proliferative activity 48 hours later SM: 37° C.; for Proliferative activity 24 hours later YP / Proliferative activity 48 hours later YP: 0.1% yeast extract +0.1% peptone +10% skim milk; for Proliferative activity 24 hours later YE / Proliferative activity 48 hours later YE: 0.1% yeast extract +10% skim milk; for Proliferative activity 24 hours later SM / Proliferative activity 48 hours later SM: 10% skim milk
Experimental: Four mediums, i.e., 10% skim milk (SM), 0.1% yeast extract (manufactured by Difco) +10% skim milk (YE), 0.1% peptone (manufactured by Difco) +10% skimmilk (P), and 0.1% yeast extract (manufactured by Difco) +0.1% peptone (manufactured by Difco) +10% skimmilk (YP) were subjected to high-pressure heat sterilization at 115° C. for 15 minutes, and then cell culture solutions of the five bacterial stains (A) and (B) obtained in Production Example 1 above (30 μl each) were separately inoculated into 3 ml of the respective mediums (the cell number of each bacterial strain: about 3·10^8 cells/ml), followed by culture at 37° C. for 24 hours and 48 hours. For proliferative activity tests, the culture solutions were evaluated based on the following criteria: completely solidified culture solution due to proliferated cells: “∘”; semifluid culture solution with slightly proliferated cells: “Δ”; and liquid culture solution with unproliferated cells: “x”.

[7] = Proliferative Activity Test 1 in presence of oxytetracycline hydrochloride; format: cell-based; design: key: ∘: fully proliferated; Δ: slightly proliferated; x: unproliferated; settings: MRS agar, 37° C., 48 hours, anaerobic
Experimental: (§2) Meanwhile, the proliferative activity test in the presence of an antibiotic was performed using cell culture solutions containing (A) L. equi YIT0483 strain and (B) at least one selected from the four Lactobacillus strains in combination.
(§3) MRS agar mediums (manufactured by Difco) to which oxytetracycline hydrochloride was added as an antibiotic at concentrations of 10, 5, 2, and 0 µg/ml were prepared. Subsequently, a cell culture solution of only (A) L. equi strain and a mixed cell culture solution of (A) L. equi strain and (B) L. reuteri strain (10 μl each) were separately inoculated into the respective antibiotic-containing MRS mediums (the cell number of each bacterial strain: about 1·10^6 cells/ml), followed by smear culture at 37° C. for 48 hours under anaerobic conditions. Then, the proliferative activities of the bacteria were evaluated with the naked eye.

[8] = Proliferative Activity Test 2 in presence of gentamicin; format: cell-based; design: key: ∘: fully proliferated; Δ: slightly proliferated; x: unproliferated; settings: MRS agar, 37° C., 48 hours, anaerobic
Experimental: as §2
as §3, with “gentamicin” for “oxytetracycline hydrochloride”, “100, 50, 20,” for “10, 5, 2,”, “μg/ml” for “µg/ml”, “johnsonii” for “reuteri”

[9] = Proliferative Activity Test 3 in presence of ofloxacin; format: cell-based; design: key: ∘: fully proliferated; Δ: slightly proliferated; x: unproliferated; settings: MRS agar, 37° C., 48 hours, anaerobic
Experimental: as §2
as §3, with “ofloxacin” for “oxytetracycline hydrochloride”, “100, 50, 20,” for “10, 5, 2,”, “μg/ml” for “µg/ml”, “johnsonii strain or L. equi strain and L. crispatus” for “reuteri”

With `CC1(C)S[C@@H]2[C@H](NC(=O)[C@H](N)c3ccccc3)C(=O)N2[C@H]1C(=O)O` [Ampicillin] as the compound, how does the “Resistance of the strain to the antibiotic (in words)” value [1] read?
The value was “particularly excellent resistance”.

With `CC1(C)S[C@@H]2[C@H](NC(=O)Cc3ccccc3)C(=O)N2[C@H]1C(=O)O` [Benzylpenicillin] as the compound, how does the “Resistance of the strain to the antibiotic (in words)” value [1] read?
The value was “stronger resistance”.

For `CC(=O)OCC1=C(C(=O)O)N2C(=O)[C@@H](NC(=O)Cc3cccs3)[C@H]2SC1` [Cefalotin sodium], which “Resistance of the strain to the antibiotic (in words)” value [1] is on record?
Its value is “particularly excellent resistance”.

For `CO/N=C(\C(=O)N[C@@H]1C(=O)N2C(C(=O)O)=C(CSc3nc(=O)c(=O)[nH]n3C)CS[C@H]12)c1csc(N)n1` [Ceftriaxone sodium], which “Resistance of the strain to the antibiotic (in words)” value [2] is on record?
Its value is “excellent specific resistance”.

For `CN[C@@H]1[C@H](O[C@H]2[C@H](O[C@H]3[C@H](O)[C@@H](O)[C@H](NC(=N)N)[C@@H](O)[C@@H]3NC(=N)N)O[C@@H](C)[C@]2(O)CO)O[C@@H](CO)[C@H](O)[C@H]1O` [Dihydrostreptomycin], which “Resistance of the strains to the antibiotic (in words)” value (“Resistance of the strains” for short) [3] is on record?
The value was “excellent resistance”.

With `COc1cc(NS(=O)(=O)c2ccc(N)cc2)ncn1` [Sulfamonomethoxine] as the compound, how does the “Resistance of the strains” value [3] read?
The value was “excellent resistance”.

Which “Resistance of the strains” value [3] does the source give for Bactramin here?
The value was “excellent resistance”.

With Gentamicin as the compound, how does the “Resistance of the strain to the antibiotic (in words)” value [4] read?
Its value is “excellent specific resistance”.

Which results are given for “Lactobacillus crispatus YIT0481 strain [(B) L. crispatus YIT0481 strain]”?
Adhesion of bacteria to horse gastric mucosal epithelial cell [5]: + (1-9 cells adhered to one gastric mucosal epithelial cell); Proliferative activity 24 hours later P [6]: ∘; Proliferative activity 48 hours later P [6]: ∘; Proliferative activity 24 hours later YP [6]: ∘; Proliferative activity 48 hours later YP [6]: ∘; Proliferative activity 24 hours later YE [6]: ∘; Proliferative activity 48 hours later YE [6]: ∘; Proliferative activity 24 hours later SM [6]: x; Proliferative activity 48 hours later SM [6]: ∘

What does the source list for “Lactobacillus equi YIT0483 strain [(A) L. equi YIT0483 strain]”?
Proliferative activity, Oxytetracycline 0 μg/ml ([7]; oxytetracycline 0 μg/ml): ∘; Proliferative activity, Oxytetracycline 2 μg/ml ([7]; oxytetracycline 2 μg/ml): x; Proliferative activity, Oxytetracycline 5 μg/ml ([7]; oxytetracycline 5 μg/ml): x; Proliferative activity, Oxytetracycline 10 μg/ml ([7]; oxytetracycline 10 μg/ml): x; Proliferative activity, Genatmicin 0 μg/ml ([8]; gentamicin 0 μg/ml): ∘; Proliferative activity, Genatmicin 20 μg/ml ([8]; gentamicin 20 μg/ml): Δ; Proliferative activity, Genatmicin 50 μg/ml ([8]; gentamicin 50 μg/ml): x; Proliferative activity, Genatmicin 100 μg/ml ([8]; gentamicin 100 μg/ml): x; Proliferative activity, Ofloxacin 0 μg/ml ([9]; ofloxacin 0 μg/ml): ∘; Proliferative activity, Ofloxacin 20 μg/ml ([9]; ofloxacin 20 μg/ml): x; Proliferative activity, Ofloxacin 50 μg/ml ([9]; ofloxacin 50 μg/ml): x; Proliferative activity, Ofloxacin 100 μg/ml ([9]; ofloxacin 100 μg/ml): x; Adhesion to horse gastric mucosal epithelial cells (in words) [5]: excellent; Adhesion of bacteria to horse gastric mucosal epithelial cell [5]: ++ (10-99 cells adhered to one gastric mucosal epithelial cell); Proliferative activity 24 hours later P [6]: ∘; Proliferative activity 48 hours later P [6]: ∘; Proliferative activity 24 hours later YP [6]: ∘; Proliferative activity 48 hours later YP [6]: ∘; Proliferative activity 24 hours later YE [6]: ∘; Proliferative activity 48 hours later YE [6]: ∘; Proliferative activity 24 hours later SM [6]: ∘; Proliferative activity 48 hours later SM [6]: ∘; Proliferative activity (in words) ([6]; under the respective medium conditions): excellent proliferative activity

For “Lactobacillus johnsonii YIT0482 strain [(B) L. johnsonii YIT0482 strain]”, which “Adhesion of bacteria to horse gastric mucosal epithelial cell” value [5] is on record?
Its value is “+ (1-9 cells adhered to one gastric mucosal epithelial cell)”.

What about the “Proliferative activity 24 hours later P” value [6] of the same compound?
The value was “∘”.

What about the “Proliferative activity 48 hours later P” value [6] of the same compound?
The value was “∘”.

What about the “Proliferative activity 24 hours later YP” value [6] of the same compound?
The value was “∘”.

And the “Proliferative activity 48 hours later YP” value [6]?
Its value is “∘”.

And the “Proliferative activity 24 hours later YE” value [6]?
The value was “∘”.

And the “Proliferative activity 48 hours later YE” value [6]?
Its value is “∘”.

What about the “Proliferative activity 24 hours later SM” value [6] of the same compound?
The value was “x”.

What about the “Proliferative activity 48 hours later SM” value [6] of the same compound?
Its value is “x”.

What does the source list for “Lactobacillus reuteri YIT0480 strain [(B) L. reuteri YIT0480 strain]”?
Adhesion of bacteria to horse gastric mucosal epithelial cell [5]: + (1-9 cells adhered to one gastric mucosal epithelial cell); Proliferative activity 24 hours later P [6]: ∘; Proliferative activity 48 hours later P [6]: ∘; Proliferative activity 24 hours later YP [6]: ∘; Proliferative activity 48 hours later YP [6]: ∘; Proliferative activity 24 hours later YE [6]: ∘; Proliferative activity 48 hours later YE [6]: ∘; Proliferative activity 24 hours later SM [6]: x; Proliferative activity 48 hours later SM [6]: x

Which “Adhesion of bacteria to horse gastric mucosal epithelial cell” value [5] does the source give for “Lactobacillus salivarius YIT0479 strain [(B) L. salivarius YIT0479 strain]” here?
Its value is “++ (10-99 cells adhered to one gastric mucosal epithelial cell)”.

And the “Proliferative activity 24 hours later P” value [6]?
The value was “∘”.

And the “Proliferative activity 48 hours later P” value [6]?
The value was “∘”.

And the “Proliferative activity 24 hours later YP” value [6]?
Its value is “∘”.

What about the “Proliferative activity 48 hours later YP” value [6] of the same compound?
The value was “∘”.

And the “Proliferative activity 24 hours later YE” value [6]?
The value was “∘”.

What about the “Proliferative activity 48 hours later YE” value [6] of the same compound?
Its value is “∘”.

What about the “Proliferative activity 24 hours later SM” value [6] of the same compound?
Its value is “x”.

And the “Proliferative activity 48 hours later SM” value [6]?
The value was “∘”.
